{
  "source": "PubChem BioAssay (NCI)",
  "assay_in_all_cases": "inhibition of tumour cell growth, NCI panel, 48 h",
  "key": {"TK-10 renal": {"system": "TK-10 renal"}, "HOP-62 NSCLC": {"system": "HOP-62 NSCLC"}, "A549 NSCLC": {"system": "A549 NSCLC"}, "SK-OV-3 ovarian": {"system": "SK-OV-3 ovarian"}, "NCI-H460 lung": {"system": "NCI-H460 lung"}, "A498 renal": {"system": "A498 renal"}},
  "note": "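Results reflect a 48-hour exposure of cells in 96-well plates to compound at five concentrations. The concentration for 50% growth inhibition is given as GI50. TGI marks complete inhibition of growth.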",
  "data": [
    {"molecule": "C=C(C=O)[C@@H]1CC[C@]2(COC(C)=O)CC[C@]3(C)C(CC[C@@H]4[C@@]5(C)CC[C@H](OC(C)=O)C(C)(C)[C@@H]5CC[C@]43C)[C@@H]12", "note": "(some centres not stated)", "values": [
      {"measurement": "GI50", "setting": "TK-10 renal", "value": "> 100", "unit": "µM"},
      {"measurement": "TGI", "setting": "TK-10 renal", "value": "> 100", "unit": "µM"},
      {"measurement": "GI50", "setting": "HOP-62 NSCLC", "value": "> 100", "unit": "µM"},
      {"measurement": "TGI", "setting": "HOP-62 NSCLC", "value": "> 100", "unit": "µM"},
      {"measurement": "GI50", "setting": "A549 NSCLC", "value": "> 100", "unit": "µM"},
      {"measurement": "TGI", "setting": "A549 NSCLC", "value": "> 100", "unit": "µM"},
      {"measurement": "GI50", "setting": "SK-OV-3 ovarian", "value": "> 100", "unit": "µM"},
      {"measurement": "TGI", "setting": "SK-OV-3 ovarian", "value": "> 100", "unit": "µM"},
      {"measurement": "GI50", "setting": "NCI-H460 lung", "value": "> 100", "unit": "µM"},
      {"measurement": "TGI", "setting": "NCI-H460 lung", "value": "> 100", "unit": "µM"},
      {"measurement": "GI50", "setting": "A498 renal", "value": "> 100", "unit": "µM"},
      {"measurement": "TGI", "setting": "A498 renal", "value": "> 100", "unit": "µM"}
    ]}
  ]
}
